Results on ten compounds are retold here after patent US20250082648A1, “COMPOSITIONS AND METHODS FOR ENHANCING KRAS INHIBITOR OR SHP2 INHIBITOR EFFICACY” (New York University, priority 2023, published 2025).

In one data set the test system is YAP1. Nature of the data set: YAP1 and DAPI immunofluorescence (YAP1 nuclear localization). It counts as cell-based. The source says:
[…]. […] Datasets (color-coded) used for pathway analysis are indicated at right with the sizes of the circles indicating statistical significance. […]. All immunofluorescence images are representative of three independent experiments. Scale bar=20 μm.
. FIG. 4B is a bubble plot showing pathways (p<0.05) enriched in SL genes (FDR<0.1). Datasets used for analysis are color-coded at right; the sizes of the circles indicate significance level. FIG. 4C is a Circos plot illustrating the overlap of SL genes (FDR<0.1) between lines. […]. FIGS. 10C-10D show quantification of YAP nuclear localization in presence of ROCK-I, in data from FIGS. 3G-3H. *p<0.05, 1-way ANOVA with Tukey's multiple comparisons test.

A further data set has as its system YAP. Description: YAP1 immunofluorescence (nuclear localization). Type of data set: cell-based, human. The method, then:
Immunofluorescence. […]. Cells were then fixed in 4% paraformaldehyde for 10 minutes at room temperature, rinsed three times for 5 min. each in PBS, and permeabilized in 0.1% Triton X-100/5% FBS in PBS for a 1 hr at RT. […] Nuclei were stained with DAPI (BioLegend, Cat #: 422801) for 5 min, and slides were washed two more times in PBS before mounting with Fluorescence Mounting Medium (Dako, Cat #: S3023). Images were acquired with a Zeiss 880 Laser Scanning Confocal Microscope (Axio Observer) equipped with Zen 3.0 software (ZEN blue, Carl Zeiss Inc.) and were processed by Fiji software (NIH).

Another data set relates to H2122 cells. Conditions: individual H2122 data (top); MRTX-849 vs vehicle 48 hr.
A further data set deals with NSCLC lines. Nature of the data set: Cell viability and proliferation assays (CCK8, trypan blue counts, Bliss analysis). It counts as cell-based, human. Conditions: for effect on MRTX-849 action: multiple NSCLC lines, including those not STK11 and/or KEAP1 mutant. On the procedure: Cell viability and proliferation assays. […] Media (including inhibitors) were replaced every two days. Dose-response curves were generated using the […] Cell Counting Kit-8 (CCK8) assay (Enzo, ALX-850-039-KI02). Three hours after addition of CCK-8 reagent to cells, A450 was recorded using a FlexStation 3 multi-mode microplate reader according to the manufacturer's instructions. IC50s were calculated with GraphPad Prism. For all other proliferation assays, cells were harvested and stained with trypan blue (#T8154, Sigma-Aldrich), and viable (trypan blue-excluding) cells were quantified with a Countless II automated cell counter (Invitrogen).

For data set [1] the following is noted: preliminary results; cited from earlier work.
The next data set concerns KCL lung tumors. Nature of the data set: KCL GEMM (KRAS G12C; Stk11 fl/fl, Ad-Cre) long-term treatment, MRI monitoring. Conditions: MRTX849 100 mg/kg/d plus SHP099 75 mg/kg/d; resistant tumors soon recurred.
The test system of a further data set is KCL cells. Description: Cell viability and proliferation assays (CCK8, trypan blue counts). The conditions noted are these: combined with MRTX-849 at its IC50 dose.
The subject of data set [2] is H2030 cell-derived xenografts. Nature of the data set: H2030 cell-derived xenografts in nu/nu mice. It counts as in vivo, mouse. The conditions noted are these: MRTX-849 100 mg/kg/d, 30 days of treatment; VT104 10 mg/kg/d.
Description: (§1) For syngeneic tumor experiments, KCL cells (10^6 in 200 ml PBS) were injected subcutaneously into the right flanks of male C57BL/6J mice (Jackson Laboratory). For xenografts, H2030 cells (5×10^6) were injected subcutaneously into the right flanks of Crl:NU-Foxn1nu/nu mice (Charles River, #088) with a 1:1 mixture of cell suspension in Matrigel (Corning, Cat #354234). […] Mice were weighed two times a week prior to dosing and throughout the study. Tumors were measured in 2 dimensions (length and width) twice a week and volumes (mm^3) were calculated as (length×width^2)/2).
In data set [3] the test system is KCL syngeneic tumor grafts. Description: KCL syngeneic tumor grafts in C57BL/6J mice. Type of data set: in vivo, mouse. Conditions: MRTX-849 100 mg/kg/d, 30 days of treatment; VT104 10 mg/kg/d.
Description: as §1

Description for H2122 cells: Bulk RNA-seq was performed on total RNA from cell lines or isolated tumor cells by the PCC Genome Technology Center Shared Resource (GTC). Libraries were prepared with the Illumina TruSeq Stranded Total RNA Sample Preparation Kit and sequenced on an Illumina NovaSeq 6000 platform utilizing 150-bp paired end reads. Sequencing data were de-multiplexed and transformed into FASTQ format by using Illumina bcl2fastq software. […] Briefly, sequencing results were transformed into FASTQ format by using Illumina bcl2fastq software. Reads were adapter- and quality-trimmed using Trimmomatic before alignment with the human or mouse genome using the splice-aware STAR aligner. Using featureCounts (49), counts for each gene were created based on the number of aligned reads overlapping its exons. These counts were standardized and subsequently evaluated for differential expression via the DESeq2 R package, using negative binomial generalized linear models. Lastly, the Enrichr tool was employed for pathway analysis of the bulk RNA-seq data.

Turning to `C=C(F)C(=O)N1CCN(c2nc(OC[C@@H]3CCCN3C)nc3c2CCN(c2cccc4cccc(Cl)c24)C3)C[C@@H]1CC#N` [MRTX-849, adagrasib], the “nuclear translocation of YAP” value with YAP1 (H2030, H2122, H23, MiaPaca2 cells, MRTX-849 at IC50) was “induces RHO/ROCK-dependent nuclear translocation of YAP”. Also, in the data set on YAP (H2030 cells), the “levels of nuclear YAP” value is recorded as “increased”, the “time at which nuclear YAP increase begins” value was 4 h and the “time at which nuclear YAP peaks” value lay within 24 to 48 h. Besides, the “PSAP RNA-seq, column median2” value with H2122 cells is listed as 0.7802.

For `C=CC(=O)N1C[C@@H](n2cc(-c3cccnc3)nn2)[C@H](OCc2ccc(C(F)(F)F)cc2)C1` [MYF-03-69], in the data set with NSCLC lines, the “effect on MRTX-849 action” value is reported as “synergistically augmented”.

Regarding `C[C@H](CO)NC(=O)c1ccc2c(Oc3ccc(C(F)(F)F)cc3)cccc2c1` [VT3989], the “safety in phase 1 clinical trial” value in [1] is recorded as “safe with manageable toxicity”.

On to `C[C@@H](NC(=O)c1ccc2c(-c3ccc(C(F)(F)F)cc3)cccc2c1)c1cccc(N)n1` [VT106], for which the “effect on drug sensitivity” value with NSCLC lines (inactive analog control) is recorded as “no effect”.

With `C[C@@H](N)[C@H]1CC[C@H](C(=O)Nc2ccncc2)CC1` [Y27632], the “YAP nuclear translocation induced by MRTX treatment” value in the data set with YAP (MRTX treatment for 24 hr plus ROCK inhibitor) is on record as “inhibited”; in the data set with YAP (after 48h of treatment plus ROCK inhibitor), “to an even greater extent”. Further, the “effect of addition on MRTX-849 efficacy” value with NSCLC lines (two cell lines tested) is listed as “increased MRTX-849 efficacy”.

In the case of `CC1(N)CCN(c2cnc(-c3cccc(Cl)c3Cl)c(N)n2)CC1` [SHP099], the “response of tumors recurred after prolonged MRTX-849 treatment” value in the data set on KCL lung tumors is given as “partial responses”.

Turning to `C=C(F)C(=O)N1C[C@@H](Nc2ncccn2)[C@H](OCc2ccc(C(F)(F)F)cc2)C1` [MYF-03-176], in the data set on KCL cells, the “IC50 in YAP1 over-expressing cells” value was “higher”.

As to `C[C@H](NC(=O)c1ccc2c(-c3ccc(C(F)(F)F)cc3)cccc2c1)c1ccccn1` [VT104], the tumor response entry in data set [2] and in data set [3] was “minimal” in each case.

In the case of `C[C@H](NC(=O)c1ccc2c(-c3ccc(C(F)(F)F)cc3)cccc2c1)c1ccccn1` [VT-104], the “IC50 in YAP1 over-expressing cells” value with KCL cells is “higher”. Moreover, the “effect on efficacy of combination MRTX849/TNO-155” value in the data set on NSCLC lines (NSCLC lines, vs single agent or two drug-combinations, all at reduced doses) was “increased the efficacy”. In the data set with NSCLC lines, the “effect on MRTX-849 action” value is “synergistically augmented”.

On to `C[C@@H](N)[C@H]1CC[C@H](C(=O)Nc2ccncc2)CC1` [Y-27632], for which the “MRTX-849-induced YAP1 nuclear localization” value in the data set on YAP1 (NSCLC lines, MRTX-849 at IC50 with or without Y-27632 (10 μM)) is listed as “impairs MRTX-849-induced YAP1 nuclear localization”.
